Values quoted from earlier work in US20130144636A1, “Method and System for Predicting Adverse Drug Reactions Using BioAssay Data” (The Board of Trustees of the Leland Stanford, Junior, …, priority 2011, published 2013).
Like-named read-outs stand apart in the source and are kept apart here. One block for each molecule: values may come before it.

How the values were obtained:
[1] = FDA drug label, DRUGDEX or literature case report
interleukin-1 (IL-1) = conditions: in vitro
[2] = in vitro mutagenesis tests such as the Ames test
murine bone marrow = conditions: in vivo murine bone marrow micronucleus tests
[3] = biological target: glutathione-S-transferase μ (GSTP1) (Homo sapiens, UniProt P09211)
Sequence of glutathione-S-transferase μ (GSTP1) (P09211 2-210 limits assumed): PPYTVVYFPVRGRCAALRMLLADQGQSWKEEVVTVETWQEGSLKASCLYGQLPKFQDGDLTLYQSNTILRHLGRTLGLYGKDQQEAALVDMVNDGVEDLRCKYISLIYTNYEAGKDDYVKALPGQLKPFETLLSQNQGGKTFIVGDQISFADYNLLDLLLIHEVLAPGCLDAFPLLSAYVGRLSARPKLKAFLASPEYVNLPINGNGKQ

SMILES: Oc1c(I)cc(Cl)c2cccnc12 [clioquinol]
known adverse drug reaction in humans [1]: associated with subacute myelo-optic neuropathy (SMON) syndrome

SMILES: CC(=O)Oc1cccc2c1C(=O)c1c(OC(C)=O)cc(C(=O)O)cc1C2=O [diacerein]
inhibition of IL-1 synthesis (interleukin-1 (IL-1)): directly inhibits the synthesis

SMILES: Oc1ccc(O)cc1 [hydroquinone]
mutagenic activity in vitro [2]: but not in in vitro mutagenesis tests
mutagenic activity in vitro ([2]; listed as Hydroquinone): inactive
genotoxic carcinogenic activity (murine bone marrow): genotoxic carcinogenic activity
genotoxic carcinogenic activity (murine bone marrow; listed as Hydroquinone): carcinogenic

inhibition of enzymatic activity [3]: inhibit the enzymatic activity
SMILES: CC(=O)Oc1ccccc1C(=O)Nc1ncc([N+](=O)[O-])s1 [nitazoxanide]
